From patent publication US20120115869A1, “TETRAZOLE DERIVATIVES” (MERCK SERONO S.A., priority 2009, published 2012)
pIC50: −log10 of the molar value.

Target: T1, CRTH2 (DP2) (Homo sapiens, UniProt Q9Y5Y4)
T1 construct: host or cells: CHO cells
T1 sequence (Q9Y5Y4 1-395): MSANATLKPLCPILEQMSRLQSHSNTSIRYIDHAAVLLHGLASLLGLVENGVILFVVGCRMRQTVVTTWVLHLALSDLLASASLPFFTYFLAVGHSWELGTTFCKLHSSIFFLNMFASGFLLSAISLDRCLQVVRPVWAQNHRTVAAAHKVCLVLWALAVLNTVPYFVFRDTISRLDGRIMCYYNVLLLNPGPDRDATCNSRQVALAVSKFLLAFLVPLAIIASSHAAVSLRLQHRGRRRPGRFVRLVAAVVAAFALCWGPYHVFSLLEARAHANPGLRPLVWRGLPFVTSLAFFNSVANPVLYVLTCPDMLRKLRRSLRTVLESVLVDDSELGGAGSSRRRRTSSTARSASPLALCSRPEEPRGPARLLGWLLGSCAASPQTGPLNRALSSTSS
Assay: Radioligand binding Scintillation Proximity Assay ([3H]PGD2, hCRTH2-CHO cell membranes)
Conditions: 1.5 nM [3H]PGD2, hCRTH2-CHO cell membranes, SPA
Method: Adherent CHO cells expressing hCRTH2 (Euroscreen, Belgium) were cultured in 225 cm^2 cell culture flasks (Corning, USA) in 30 ml of medium. After two rinses of phosphate buffered saline (PBS), cells were harvested in 10 ml of PBS containing 1 mM EDTA, centrifuged at 500×g for 5 min at 4° C. and frozen at −80° C. The pellet was re-suspended in 50 mM Tris-HCl, pH 7.4, 2 mM EDTA, 250 mM Sucrose, containing protease inhibitor cocktail tablets, (Complete EDTA-free, Roche, Germany) and incubated 30 min at 4° C. Cells were disrupted by nitrogen cavitation (Parr Instruments, USA) at 4° C. (800 p.s.i. for 30 min), and centrifuged at 500×g for 10 min at 4° C. Pellet containing nuclei and cellular debris was discarded and supernatant was centrifuged 60 min at 4° C. at 45000×g. Membrane pellet was re-suspended in storage buffer (10 mM HEPES/KOH pH 7.4, 1 mM EDTA, 250 mM sucrose, protease inhibitor cocktail tablets) using Dounce homogenization and frozen in liquid nitrogen, and stored at 80° C.
Non-specific binding was determined in the presence of 10 μM PGD2 (Cayman, USA). Competing Compounds of Formula (I) were diluted in dimethylsulphoxide so that the total volume of dimethylsulfoxide was kept constant at 1% dimethylsulphoxide (Me2SO). Serial dilutions of […] were prepared and 10 μl each of the compounds of Formula (I) stock solutions were added to the binding assay reagents and incubated for 90 min with agitation at room temperature.

| Structure (SMILES) | pIC50 |
| --- | --- |
| CCOCC(=O)N(Cc1ccc(OC(F)(F)F)cc1)c1cc(Cl)cc(-c2nnn[nH]2)c1 [Example 67, N-[3-chloro-5-(1H-tetrazol-5-yl)phenyl]-2-ethoxy-N-[4-(trifluoromethoxy)benzyl]acetamide] | 7.80 |
| CCC(=O)N(Cc1cccc(-c2ccncc2)c1)c1cc(F)cc(-c2nnn[nH]2)c1 [Example 83, N-[3-fluoro-5-(1H-tetrazol-5-yl)phenyl]-N-(3-pyridin-4-ylbenzyl)propanamide] | 7.60 |
| CCC(=O)N(Cc1cccc(OC(C)C)c1)c1cc(F)cc(-c2nnn[nH]2)c1 [Example 75, N-[3-fluoro-5-(1H-tetrazol-5-yl)phenyl]-N-(3-isopropoxybenzyl)propanamide] | 8.15 |
| CCCCC(=O)N(Cc1ccc2c(c1)OCCO2)c1cc(-c2nnn[nH]2)c(F)cc1F [Example 10, N-[2,4-difluoro-5-(1H-tetrazol-5-yl)phenyl]-N-(2,3-dihydro-1,4-benzodioxin-6-ylmethyl)pentanamide] | 7.27 |
| CCC(=O)N(Cc1cccc(-c2ccncc2)c1)c1cccc(-c2nnn[nH]2)c1 [Example 96, N-(3-pyridin-4-ylbenzyl)-N-[3-(1H-tetrazol-5-yl)phenyl]propanamide] | 6.48 |
| CCC(=O)N(Cc1ccc(-c2c(C)noc2C)cc1)c1cccc(-c2nnn[nH]2)c1 [Example 71, N-[4-(3,5-dimethylisoxazol-4-yl)benzyl]-N-[3-(1H-tetrazol-5-yl)phenyl]propanamide] | 6.74 |
| CCC(=O)N(Cc1ccc(-c2cccc(S(C)(=O)=O)c2)cc1)c1cc(F)cc(-c2nnn[nH]2)c1 [Example 87, N-[3-fluoro-5-(1H-tetrazol-5-yl)phenyl]-N-{[3′-(methylsulfonyl)biphenyl-4-yl]methyl}propanamide] | 6.73 |
| CCC(=O)N(Cc1ccc(-c2ccncc2)cc1)c1cc(F)cc(-c2nnn[nH]2)c1 [Example 89, N-[3-fluoro-5-(1H-tetrazol-5-yl)phenyl]-N-(4-pyridin-4-ylbenzyl)propanamide] | 7.24 |
| CS(=O)(=O)c1ccc(CN(C(=O)c2cccnc2)c2cc(F)cc(-c3nnn[nH]3)c2)cc1 [Example 116, N-[3-fluoro-5-(1H-tetrazol-5-yl)phenyl]-N-[4-(methylsulfonyl)benzyl]nicotinamide] | 8.34 |
| CCC(=O)N(Cc1ccc([S+]([O-])C(F)(F)F)cc1)c1cc(F)cc(-c2nnn[nH]2)c1 (centres unmarked) [Example 113, N-[3-fluoro-5-(1H-tetrazol-5-yl)phenyl]-N-{4-[(trifluoromethyl)sulfinyl]benzyl}propanamide] | 8.46 |
| CCC(=O)N(Cc1ccc(SC(F)(F)F)cc1)c1cc(F)cc(-c2nnn[nH]2)c1 [Example 82, N-[3-fluoro-5-(1H-tetrazol-5-yl)phenyl]-N-{4-[(trifluoromethyl)thio]benzyl}propanamide] | 8.59 |
| CCC(=O)N(Cc1ccc(-c2cn[nH]c2)cc1)c1cccc(-c2nnn[nH]2)c1 [Example 70, N-[4-(1H-pyrazol-4-yl)benzyl]-N-[3-(1H-tetrazol-5-yl)phenyl]propanamide] | 6.34 |
| CCC(=O)N(Cc1ccc(-c2c(C)nn(C)c2C)cc1)c1cc(F)cc(-c2nnn[nH]2)c1 [Example 94, N-[3-fluoro-5-(1H-tetrazol-5-yl)phenyl]-N-[4-(1,3,5-trimethyl-1H-pyrazol-4-yl)benzyl]propanamide] | 7.68 |
| CCCCC(=O)N(Cc1ccc(O)cc1)c1cccc(-c2nnn[nH]2)c1 [Example 74, N-(4-hydroxybenzyl)-N-[3-(1H-tetrazol-5-yl)phenyl]pentanamide] | 6.77 |
| CCC(=O)N(Cc1cccnc1)c1cccc(-c2nnn[nH]2)c1 [Example 51, N-(pyridin-3-ylmethyl)-N-[3-(1H-tetrazol-5-yl)phenyl]propanamide] | 5.17 |
| CCC(=O)N(Cc1ccc(OC(F)(F)F)cc1)c1cccc(-c2nnn[nH]2)c1 [Example 22, N-[3-(1H-tetrazol-5-yl)phenyl]-N-[4-(trifluoromethoxy)benzyl]propanamide] | 6.88 |
| CCCCC(=O)N(Cc1cccs1)c1cccc(-c2nnn[nH]2)c1 [Example 16, N-[3-(1H-tetrazol-5-yl)phenyl]-N-(2-thienylmethyl)pentanamide] | 6.23 |
| CCC(=O)N(Cc1ccc(-c2cc[nH]n2)cc1)c1cccc(-c2nnn[nH]2)c1 [Example 66, N-[4-(1H-pyrazol-3-yl)benzyl]-N-[3-(1H-tetrazol-5-yl)phenyl]propanamide] | 6.01 |

| Structure (SMILES) | pIC50 |
| --- | --- |
| CCC(=O)N(Cc1cccc(-c2cccnc2)c1)c1cccc(-c2nnn[nH]2)c1 [Example 64, N-(3-pyridin-3-ylbenzyl)-N-[3-(1H-tetrazol-5-yl)phenyl]propanamide] | 6.39 |
| C#Cc1cccc(CN(C(C)=O)c2cc(-c3nnn[nH]3)ccc2F)c1 [Example 2, N-(3-ethynylbenzyl)-N-[2-fluoro-5-(1H-tetrazol-5-yl)phenyl]acetamide] | 6.76 |
| CCC(=O)N(Cc1cccc(-c2cnoc2)c1)c1cccc(-c2nnn[nH]2)c1 [Example 62, N-(3-isoxazol-4-ylbenzyl)-N-[3-(1H-tetrazol-5-yl)phenyl]propanamide] | 6.11 |
| CCC(=O)N(Cc1ccccc1)c1cccc(-c2nnn[nH]2)c1 [Example 30, N-benzyl-N-[3-(1H-tetrazol-5-yl)phenyl]propanamide] | 5.65 |
| CCC(=O)N(Cc1ccsc1)c1cccc(-c2nnn[nH]2)c1 [Example 18, N-[3-(1H-tetrazol-5-yl)phenyl]-N-(3-thienylmethyl)propanamide] | 5.68 |
| CCCC#Cc1cccc(CN(C(=O)CC)c2cccc(-c3nnn[nH]3)c2)c1 [Example 49, N-(3-pent-1-yn-1-ylbenzyl)-N-[3-(1H-tetrazol-5-yl)phenyl]propanamide] | 6.21 |
| CCC(=O)N(Cc1cccc(F)c1)c1cccc(-c2nnn[nH]2)c1 [Example 32, N-(3-fluorobenzyl)-N-[3-(1H-tetrazol-5-yl)phenyl]propanamide] | 5.77 |
| CCC(=O)N(Cc1cccc(-c2cn[nH]c2)c1)c1cc(F)cc(-c2nnn[nH]2)c1 [Example 101, N-[3-fluoro-5-(1H-tetrazol-5-yl)phenyl]-N-[3-(1H-pyrazol-4-yl)benzyl]propanamide] | 7.72 |
| CCCCC(=O)N(Cc1ccc(OC(F)(F)F)cc1)c1cc(F)cc(-c2nnn[nH]2)c1 [Example 35, N-[3-fluoro-5-(1H-tetrazol-5-yl)phenyl]-N-[4-(trifluoromethoxy)benzyl]pentanamide] | 8.05 |
| CCC(=O)N(Cc1cccc(-c2c(C)noc2C)c1)c1cccc(-c2nnn[nH]2)c1 [Example 61, N-[3-(3,5-dimethylisoxazol-4-yl)benzyl]-N-[3-(1H-tetrazol-5-yl)phenyl]propanamide] | 6.52 |
| CCC(=O)N(Cc1ccc(-c2cccc(S(=O)(=O)NCCO)c2)cc1)c1cc(F)cc(-c2nnn[nH]2)c1 [Example 92, N-[3-fluoro-5-(1H-tetrazol-5-yl)phenyl]-N-[(3′-{[(2-hydroxyethyl)amino]sulfonyl}biphenyl-4-yl)methyl]propanamide] | 6.80 |
| CCC(=O)N(Cc1cccc(C#CC(C)(C)C)c1)c1cccc(-c2nnn[nH]2)c1 [Example 50, N-[3-(3,3-dimethylbut-1-yn-1-yl)benzyl]-N-[3-(1H-tetrazol-5-yl)phenyl]propanamide] | 5.89 |
| Cc1ccc(CCC(=O)N(Cc2ccc(S(C)(=O)=O)cc2)c2cc(F)cc(-c3nnn[nH]3)c2)cc1 [Example 107, N-[3-fluoro-5-(1H-tetrazol-5-yl)phenyl]-3-(4-methylphenyl)-N-[4-(methylsulfonyl)benzyl]propanamide] | 8.54 |
| CCC(=O)N(Cc1cccc(-c2cccnc2)c1)c1cc(F)cc(-c2nnn[nH]2)c1 [Example 81, N-[3-fluoro-5-(1H-tetrazol-5-yl)phenyl]-N-(3-pyridin-3-ylbenzyl)propanamide] | 7.47 |
| CC(C)C(=O)N(Cc1ccc(S(C)(=O)=O)cc1)c1cc(F)cc(-c2nnn[nH]2)c1 [Example 117, N-[3-fluoro-5-(1H-tetrazol-5-yl)phenyl]-2-methyl-N-[4-(methylsulfonyl)benzyl]propanamide] | 7.72 |
| CCC(=O)N(Cc1ccccc1F)c1cccc(-c2nnn[nH]2)c1 [Example 33, N-(2-fluorobenzyl)-N-[3-(1H-tetrazol-5-yl)phenyl]propanamide] | 5.94 |
| CCC(=O)N(Cc1nonc1C)c1cccc(-c2nnn[nH]2)c1 [Example 44, N-[(4-methyl-1,2,5-oxadiazol-3-yl)methyl]-N-[3-(1H-tetrazol-5-yl)phenyl]propanamide] | 5.68 |
